Several values for one entry are separate records, joined by “and”; a condition that tells them apart may be missing. Equal values may be shown once. Entries after “also recorded” stand apart in the source; their conditions may differ.
Columns and labels:
[1] = acid (counterion) used in salt screen; cited from earlier work
[2] = estimated solubility by adding test solvent in aliquots to weighed solid, visual inspection; assay type: physicochemical
Description: Solubilities of the compound of Formula (I), free base, in a few solvents were estimated. The experiments were carried out by adding the test solvent in aliquots to weighed portions of solid. Whether dissolution had occurred was judged by visual inspection after addition of each solvent aliquot. Solubility numbers were calculated by dividing the weight of the sample by total amount of solvent used to dissolve the sample. The actual solubilities may be greater than the numbers calculated because of the use of solvent aliquots that were too large or because of slow dissolution rates. […] The solubility number is expressed as “greater than or equal to” if dissolution occurred on addition of the first solvent aliquot.
Solubilities of Fumarate Salt Form A are shown in Tables 8 and 9, in selected solvents and aqueous binary mixtures.
Solubilities of the compound of Formula (I), Fumarate Salt Form A, are shown in Tables 15 and 16, in selected solvents and aqueous binary mixtures.

[3] = water solubility, visual solubility estimation using pipet method; assay type: physicochemical; details: thermodynamic from solid
[4] = dynamic vapor sorption (DVS) analysis, TA Instruments Q5000, 5 to 95% RH; assay type: physicochemical
Description: For Fumarate Salt Form A, Dynamic vapor sorption (DVS) analysis was carried out using a TA Instruments Q5000 Dynamic Vapor Sorption analyser. The instrument was calibrated with standard weights and a sodium bromide standard for humidity. Approximately 10-25 mg of sample was loaded into a metal coated quartz pan for analysis. The sample was analysed at 25° C. with a maximum equilibration time of one hour in 10% relative humidity (RH) steps from 5 to 95% RH (adsorption cycle) and from 95 to 5% RH (desorption cycle). The movement from one step to the next occurred either after satisfying the equilibrium criterion of 0.01% weight change, or when the equilibrium criterion was not met after one hour. The percent weight change values were then calculated.

[5] = initial physical stability evaluation at various relative humidity, room temperature, ~1 week (XRPD, Karl Fischer); assay type: physicochemical
Description: In another one or more examples, Karl Fischer titrations (water content analysis) for fumarate salt(s) (e.g., Fumarate Salt Form A) were carried out using a Mettler-Toledo C20 Coulometric KF titrator. The instrument was calibrated using a Hydranal water standard containing 1% water. The titrant was a Hydranal methanol solution.
For initial physical stability evaluation, Fumarate Salt Form A was stored at various relative humidity conditions and room temperature for approximately 1 week (Table 14). Subsamples of Fumarate Salt Form A (approximately 90 mg) were weighed and placed inside relative humidity (RH) jars; after 1 week the samples were analyzed by XRPD and Karl Fisher analysis; the results are summarized in Table 14.

[6] = slurry of crystalline Fumarate Salt Form A in solvents, XRPD; assay type: physicochemical
From the text: Regarding the use of crystalline Fumarate Salt Form A in polymorph screens, crystalline Fumarate Salt Form A as a starting material was mixed with different solvents under various conditions in attempts to generate polymorphs.

[7] = overnight slurry in solvent, NMR analysis of recovered solids; assay type: physicochemical

O=C(O)[C@H](O)[C@@H](O)[C@H](O)[C@H](O)CO [D-gluconic]
pKa [1]: 3.76

CN1CCN([C@@H]2CCCN(c3cnc(C(N)=O)c(Nc4ccc(C5CCN(CC6CCN(c7ccc(C(=O)N[C@H]8CCC(=O)NC8=O)nc7)CC6)CC5)cc4)n3)C2)C1=O.O=C(O)/C=C/C(=O)O [Fumarate Salt Form A]
solubility ([2]; acetonitrile/H2O (45/55), aw 0.9, solubility without temperature): >10000 µg/mL
solubility ([2]; aqueous with cosolvent or surfactant or cyclodextrin, thermodynamic from solid, 1,4-dioxane/H2O (60/40), aw 1.0, solubility without temperature, read-out: Solubility): 10000 µg/mL
solubility ([2]; aqueous with cosolvent or surfactant or cyclodextrin, thermodynamic from solid, 1,4-dioxane/H2O (95/5), aw 0.4, solubility without temperature, read-out: Solubility): 1000 µg/mL
solubility ([2]; aqueous with cosolvent or surfactant or cyclodextrin, thermodynamic from solid, 2-propanol/H2O (80/20), aw 0.9, at 45° C., read-out: Solubility): > 1000 µg/mL
solubility ([2]; aqueous with cosolvent or surfactant or cyclodextrin, thermodynamic from solid, 2-propanol/H2O (80/20), aw 0.9, solubility without temperature, read-out: Solubility): < 1000 µg/mL
solubility ([2]; aqueous with cosolvent or surfactant or cyclodextrin, thermodynamic from solid, acetone/H2O (70/30), aw 0.85, solubility without temperature, read-out: Solubility): 6000 µg/mL
solubility ([2]; aqueous with cosolvent or surfactant or cyclodextrin, thermodynamic from solid, acetonitrile/H2O (45/55), aw 0.9, solubility without temperature, read-out: Solubility): > 10000 µg/mL
solubility ([2]; aqueous with cosolvent or surfactant or cyclodextrin, thermodynamic from solid, ethanol/H2O (70/30), aw 0.8, solubility without temperature, read-out: Solubility): 4000 µg/mL
solubility ([2]; aqueous with cosolvent or surfactant or cyclodextrin, thermodynamic from solid, methanol/H2O (50/50), aw 0.75, solubility without temperature, read-out: Solubility): 2000 µg/mL
solubility ([2]; aqueous with cosolvent or surfactant or cyclodextrin, thermodynamic from solid, tetrahydrofuran/H2O (80/20), aw 1, solubility without temperature, read-out: Solubility): > 9000 µg/mL
solubility ([2]; organic solvent or mixture, thermodynamic from solid, 1,4-dioxane, at 60° C., read-out: Solubility): 1000 µg/mL
solubility ([2]; organic solvent or mixture, thermodynamic from solid, acetone, at 60° C., read-out: Solubility): < 1000 µg/mL
solubility ([2]; organic solvent or mixture, thermodynamic from solid, acetonitrile (ACN), at 60° C., read-out: Solubility): < 1000 µg/mL
solubility ([2]; organic solvent or mixture, thermodynamic from solid, dichloromethane (DCM), at 60° C., read-out: Solubility): < 1000 µg/mL
solubility ([2]; organic solvent or mixture, thermodynamic from solid, dimethylformamide (DMF), at RT, read-out: Solubility): > 50000 µg/mL
solubility ([2]; organic solvent or mixture, thermodynamic from solid, ethanol (EtOH), at 60° C., read-out: Solubility): < 1000 µg/mL
solubility ([2]; organic solvent or mixture, thermodynamic from solid, ethyl formate, at 60° C., read-out: Solubility): < 1000 µg/mL
solubility ([2]; organic solvent or mixture, thermodynamic from solid, methanol (MeOH), at RT, read-out: Solubility): 1000 µg/mL
solubility ([2]; organic solvent or mixture, thermodynamic from solid, methyl ethyl ketone (MEK), at 60° C., read-out: Solubility): < 1000 µg/mL
solubility ([2]; organic solvent or mixture, thermodynamic from solid, tetrahydrofuran (THF), at 60° C., read-out: Solubility): < 1000 µg/mL
solubility in aqueous solvents with high water activities (qualitative) ([2]; polymorph screening by salt formation in situ): soluble
solubility ([2]; thermodynamic from solid, water, at 60° C., read-out: Solubility): < 1000 µg/mL
solubility [3]: < 300 µg/mL
DVS: water uptake in the range 40-75% RH [4]: approximately 0.5%
DVS: weight gain up to 95% RH ([4]; 25° C.): approximately 4%
DVS: hygroscopicity ([4]; 25° C., 5 to 95% RH): Moderately hygroscopic
Post-DVS XRPD ([4]; material after sorption/desorption cycle): Unchanged; also recorded: consistent with Fumarate Salt Form A exhibiting some peak shifting at higher angles; also recorded: Form A, high angle peak shifting
DVS: water absorbed over each of the RH ranges 5 to 35%; 35 to 85%; 85 to 95% RH ([4]; one third of the total uptake per range): Approximately 1%
DVS: loss from 95 to 5% RH ([4]; ~800-mg scale lot): 3% loss from 95 to 5% RH
DVS: loss upon drying at 5% RH ([4]; ~800-mg scale lot): 0% loss upon drying at 5% RH
KF-Oven % Water, Av ([5]; RT, 20% RH): 1.23%
KF-Oven % Water, single determinations ([5]; RT, 20% RH): 1.22% and 1.24%
KF-Oven water ([5]; RT, 20% RH): 0.7 mol/mol
XRPD Result ([5]; RT, 20% RH): Form A
KF-Oven % Water, Av ([5]; RT, 39% RH): 1.59%
KF-Oven % Water, single determinations ([5]; RT, 39% RH): 1.67% and 1.50%
KF-Oven water ([5]; RT, 39% RH): 0.9 mol/mol
XRPD Result ([5]; RT, 39% RH): Form A
KF-Oven % Water, Av ([5]; RT, 58% RH): 1.58%
KF-Oven % Water, single determinations ([5]; RT, 58% RH): 1.53% and 1.63%
KF-Oven water ([5]; RT, 58% RH): 0.9 mol/mol
XRPD Result ([5]; RT, 58% RH): Form A
KF-Oven % Water, Av ([5]; RT, 75% RH): 1.73%
KF-Oven % Water, single determinations ([5]; RT, 75% RH): 1.82% and 1.63%
KF-Oven water ([5]; RT, 75% RH): 0.9 mol/mol
XRPD Result ([5]; RT, 75% RH): Form A
KF-Oven % Water, Av ([5]; RT, 97% RH): 3.86%
KF-Oven % Water, single determinations ([5]; RT, 97% RH): 3.77% and 3.94%
KF-Oven water ([5]; RT, 97% RH): ~2.1 mol/mol
XRPD Result ([5]; RT, 97% RH): Form A
KF-Oven % Water, Av ([5]; RT, ~0% RH): 1.08%
KF-Oven % Water, single determinations ([5]; RT, ~0% RH): 1.14% and 1.01%
KF-Oven water ([5]; RT, ~0% RH): 0.6 mol/mol
KF-Oven water (moles) ([5]; RT, ~0% RH): approximately 0.6 moles
XRPD Result ([5]; RT, ~0% RH): Form A
water content in the relative humidity range 40-75% RH (Karl Fisher) ([5]; room temperature): approximately 0.9 moles
changes by XRPD after storage at various relative humidity conditions ([5]; room temperature, 0 to 97% RH): no changes were observed
stability upon slurry in aqueous binary mixtures with high water activities (XRPD) ([6]; 50° C. for 1 week): appeared to be stable
result of slurries in non-aqueous and some low water activity solvents (XRPD) ([6]; e.g., dioxane/water 95:5, aw 0.4): disordered/low crystalline materials

CN1CCN([C@@H]2CCCN(c3cnc(C(N)=O)c(Nc4ccc(C5CCN(CC6CCN(c7ccc(C(=O)N[C@H]8CCC(=O)NC8=O)nc7)CC6)CC5)cc4)n3)C2)C1=O.O=C(O)/C=C\C(=O)O [Maleate Salt Form A]
solubility [3]: < 300 µg/mL
1H NMR, post-EtOH slurry ([7]; slurry stirred overnight in EtOH): Consistent with a 1:1 salt
1H NMR, post-water slurry ([7]; slurry stirred overnight in water): Not consistent with 1:1 salt (0.4

O=C(O)CNC(=O)c1ccccc1 [hippuric]
pKa [1]: 3.55
